Test results: ChEMBL document CHEMBL1201862, “PubChem BioAssay data set” (2004)
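Following 48 hours of exposure in 96-well plates, responses at five concentrations were used to interpolate endpoints linearly. Here, GI50 denotes the concentration required for 50% inhibition of growth.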 Calls of active or inactive are those of the source. Cut-off read from the data, not from the text of the source: active = GI50 up to about 1.1 µM and inactive = higher.

Key:
Assay in all cases: DTP human tumour cell line panel, 48 h
[1] = test system: HOP-62
[2] = test system: SF-268
[3] = test system: ACHN
[4] = test system: UO-31
[5] = test system: COLO 205
[6] = test system: SK-MEL-28
[7] = test system: RPMI-8226
[8] = test system: RXF 393
[9] = test system: SK-MEL-2
[10] = test system: MDA-MB-435
[11] = test system: MDA-MB-231
[12] = test system: OVCAR-5
[13] = test system: KM12
[14] = test system: 786-0
[15] = test system: TK-10
[16] = test system: SNB-75
[17] = test system: UACC-62
[18] = test system: IGROV-1
[19] = test system: PC-3
[20] = test system: A549

| Compound | GI50 [1] | GI50 [2] | GI50 [3] | GI50 [4] | GI50 [5] | GI50 [6] | GI50 [7] | GI50 [8] | GI50 [9] | GI50 [10] | GI50 [11] | GI50 [12] | GI50 [13] | GI50 [14] | GI50 [15] | GI50 [16] | GI50 [17] | GI50 [18] | GI50 [19] | GI50 [20] |
| --- | --- | --- | --- | --- | --- | --- | --- | --- | --- | --- | --- | --- | --- | --- | --- | --- | --- | --- | --- | --- |
| CCCC(=O)n1[nH]c(=O)n(C(C)(C)C)c1=O | > 100 µM (inactive) | > 100 µM (inactive) | > 100 µM (inactive) | > 100 µM (inactive) | > 100 µM (inactive) | > 100 µM (inactive) | > 100 µM (inactive) | > 100 µM (inactive) | > 100 µM (inactive) | > 100 µM (inactive) | > 100 µM (inactive) | > 100 µM (inactive) | > 100 µM (inactive) | > 100 µM (inactive) | > 100 µM (inactive) | 39.5 µM (inactive) | > 100 µM (inactive) | > 100 µM (inactive) | > 100 µM (inactive) | > 100 µM (inactive) |
| COc1cc(-c2[nH]ccc2Cl)oc1C1=C2N=C3C=C2C(C(C)C)C1CCCCCCCC3 (stereo not given) | 0.774 µM (active) | 1.08 µM (active) | 0.971 µM (active) | 1.03 µM (active) | 0.566 µM (active) | 1.35 µM (inactive) | 0.339 µM (active) | 0.904 µM (active) | 0.483 µM (active) | 0.401 µM (active) | 0.279 µM (active) | 0.735 µM (active) | 0.476 µM (active) | 0.449 µM (active) | 2.05 µM (inactive) | 1.12 µM (inactive) | 0.794 µM (active) | 0.993 µM (active) | 0.332 µM (active) | 0.912 µM (active) |
| CC1(C)CCCCC1/C=C/C(CC(O)(C(F)(F)F)C(F)(F)F)=N\Nc1ccc([N+](=O)[O-])cc1[N+](=O)[O-] (stereo not given) | 0.578 µM (active) | 0.527 µM (active) | 0.48 µM (active) | 0.706 µM (active) | 1.18 µM (inactive) | 4.23 µM (inactive) | 0.33 µM (active) | 0.406 µM (active) | 3.18 µM (inactive) | 0.49 µM (active) | 2.03 µM (inactive) | 1.57 µM (inactive) | 2.68 µM (inactive) | 1.92 µM (inactive) | 0.546 µM (active) | 1.31 µM (inactive) | 1.02 µM (active) | 0.514 µM (active) | 0.333 µM (active) | 1.26 µM (inactive) |
| CC1CC(C)C2=NOS3=C2C1=NO3 (stereo not given) | > 100 µM (inactive) | > 100 µM (inactive) | > 100 µM (inactive) | > 100 µM (inactive) | 72.6 µM (inactive) | > 100 µM (inactive) | > 100 µM (inactive) | > 100 µM (inactive) | > 100 µM (inactive) | > 100 µM (inactive) | > 100 µM (inactive) | > 100 µM (inactive) | > 100 µM (inactive) | > 100 µM (inactive) | > 100 µM (inactive) | 59.8 µM (inactive) | 79.8 µM (inactive) | 58.7 µM (inactive) | > 100 µM (inactive) | > 100 µM (inactive) |
| COc1cc([C@H]2c3cc4c(cc3O[C@@]3(O)COC(=O)[C@@H]23)OCO4)cc(OC)c1OC | > 100 µM (inactive) | > 100 µM (inactive) | > 100 µM (inactive) | > 100 µM (inactive) | > 100 µM (inactive) | > 100 µM (inactive) | > 100 µM (inactive) | > 10 µM (inactive) | > 100 µM (inactive) | > 100 µM (inactive) | > 100 µM (inactive) | > 100 µM (inactive) | > 100 µM (inactive) | > 100 µM (inactive) | > 100 µM (inactive) | > 100 µM (inactive) | > 100 µM (inactive) | > 100 µM (inactive) | > 100 µM (inactive) | > 100 µM (inactive) |
| CCOC(=O)c1cccc(NC(=O)CCl)c1 | 2.44 µM (inactive) | 2.11 µM (inactive) | 3.48 µM (inactive) | 4.04 µM (inactive) | 7.74 µM (inactive) | 16.7 µM (inactive) | 3.99 µM (inactive) | 3 µM (inactive) | 2.64 µM (inactive) | 2.38 µM (inactive) | 4.57 µM (inactive) | 7 µM (inactive) | 7.46 µM (inactive) | 1.9 µM (inactive) | 6.03 µM (inactive) | 2.77 µM (inactive) | 1.52 µM (inactive) | 2.48 µM (inactive) | 6.1 µM (inactive) | 10.4 µM (inactive) |
| COC1CC(C)([N+](=O)[O-])C(O)C(C)O1 (stereo not given) | > 100 µM (inactive) | > 100 µM (inactive) | > 100 µM (inactive) | > 100 µM (inactive) | > 100 µM (inactive) | > 100 µM (inactive) | > 100 µM (inactive) | > 100 µM (inactive) | > 100 µM (inactive) | > 100 µM (inactive) | > 100 µM (inactive) | > 100 µM (inactive) | > 100 µM (inactive) | > 100 µM (inactive) | > 100 µM (inactive) | > 100 µM (inactive) | > 100 µM (inactive) | > 100 µM (inactive) | > 100 µM (inactive) | > 100 µM (inactive) |
| N#Cc1c(N)oc(-c2ccc([N+](=O)[O-])cc2)c1C#N | 24.5 µM (inactive) | 19.5 µM (inactive) | 27.2 µM (inactive) | 19.1 µM (inactive) | 43.9 µM (inactive) | 44.2 µM (inactive) | 33.3 µM (inactive) | 28.6 µM (inactive) | 24.3 µM (inactive) | 47.4 µM (inactive) | 22 µM (inactive) | 69.8 µM (inactive) | 72.6 µM (inactive) | 30.1 µM (inactive) | 28.4 µM (inactive) | 17.7 µM (inactive) | 39.5 µM (inactive) | 18.5 µM (inactive) | 22.5 µM (inactive) | 23 µM (inactive) |
| COc1ccc(NC(=O)CC(=O)NNC(Sc2ccccc2)c2cc(/N=N/c3ccc(Br)cc3)ccc2O)cc1 (stereo not given) | > 10 µM (inactive) | > 10 µM (inactive) | > 10 µM (inactive) | > 10 µM (inactive) | > 10 µM (inactive) | > 10 µM (inactive) | > 10 µM (inactive) | > 10 µM (inactive) | > 10 µM (inactive) | > 10 µM (inactive) | > 10 µM (inactive) | > 10 µM (inactive) | > 10 µM (inactive) | 6.73 µM (inactive) | > 10 µM (inactive) | 5.52 µM (inactive) | > 10 µM (inactive) | > 10 µM (inactive) | > 10 µM (inactive) | > 10 µM (inactive) |
| Cc1cn(CCOCCOC(=O)NC(CCCNC(=N)N)C(=O)O)c(=O)[nH]c1=O (stereo not given) | > 100 µM (inactive) | > 100 µM (inactive) | > 100 µM (inactive) | > 100 µM (inactive) | > 100 µM (inactive) | > 100 µM (inactive) | > 100 µM (inactive) | > 100 µM (inactive) | > 100 µM (inactive) | > 100 µM (inactive) | > 100 µM (inactive) | > 100 µM (inactive) | > 100 µM (inactive) | > 100 µM (inactive) | > 100 µM (inactive) | > 100 µM (inactive) | > 100 µM (inactive) | > 100 µM (inactive) | > 100 µM (inactive) | > 100 µM (inactive) |
| COc1ccc(C(C)c2cc3c(cc2O)OCO3)cc1 (stereo not given) | 16.4 µM (inactive) | 14.9 µM (inactive) | 19.7 µM (inactive) | 16.2 µM (inactive) | 14.3 µM (inactive) | 16.8 µM (inactive) | 16.8 µM (inactive) | 14.8 µM (inactive) | 14.9 µM (inactive) | 4.56 µM (inactive) | 14.2 µM (inactive) | 20.6 µM (inactive) | 12.9 µM (inactive) | 17.9 µM (inactive) | 16.3 µM (inactive) | 20.3 µM (inactive) | 12.1 µM (inactive) | 15.8 µM (inactive) | 15.7 µM (inactive) | 14.7 µM (inactive) |
| O=c1oc2ccccc2cc1-c1csc(Nc2ccc(F)cc2)n1 | 2.99 µM (inactive) | 3.15 µM (inactive) | 8.55 µM (inactive) | 2.33 µM (inactive) | 4.47 µM (inactive) | 0.382 µM (active) | 0.216 µM (active) | 6.56 µM (inactive) | 14.8 µM (inactive) | 4.32 µM (inactive) | 11.3 µM (inactive) | 8.38 µM (inactive) | 5.5 µM (inactive) | 1.79 µM (inactive) | 2.98 µM (inactive) | 2.07 µM (inactive) | 12.6 µM (inactive) | 4.99 µM (inactive) | 5.43 µM (inactive) | 1.67 µM (inactive) |
| CC(=O)O[C@H]1/C(=C/c2ccncc2)C[C@H]2[C@@H]3CC=C4C[C@@H](N5CCCC5)CC[C@]4(C)[C@H]3CC[C@]12C | 14.2 µM (inactive) | 15.1 µM (inactive) | 14.1 µM (inactive) | 4.99 µM (inactive) | 11.4 µM (inactive) | 12.7 µM (inactive) | 6.1 µM (inactive) | 6.9 µM (inactive) | 15.5 µM (inactive) | 12.1 µM (inactive) | 19.1 µM (inactive) | 13.2 µM (inactive) | 11.9 µM (inactive) | 3.15 µM (inactive) | 14.6 µM (inactive) | 14.7 µM (inactive) | 14.2 µM (inactive) | 12.6 µM (inactive) | 11.7 µM (inactive) | 11.8 µM (inactive) |
| Cc1cc(C)c2c(=N)c3ccccc3n(CCCCCCO)c2n1 | 4.53 µM (inactive) | 3.62 µM (inactive) | 1.36 µM (inactive) | 1.63 µM (inactive) | 1.35 µM (inactive) | 5.71 µM (inactive) | 1.38 µM (inactive) | 3.21 µM (inactive) | 3.27 µM (inactive) | 4.38 µM (inactive) | 3.68 µM (inactive) | 4.91 µM (inactive) | 3.94 µM (inactive) | 2.47 µM (inactive) | 3.15 µM (inactive) | 1.88 µM (inactive) | 2.64 µM (inactive) | 2.09 µM (inactive) | 2.21 µM (inactive) | 3.3 µM (inactive) |
